Reference: patent publication US20260071252A1, “REVERSIBLE NANOPARTICLE AGGREGATES AND METHODS FOR DETECTING PROTEASES” (The Regents of the University of California, priority 2022, published 2026)
Several values for one entry are separate records, joined by “and”; a condition that tells them apart may be missing. Equal values may be shown once. Where no end group is shown, it is not given here.

Assays:
[1] = Peptide-induced (Arg-Arg) assembly of AuNPs-citrate, TEM/MANTA/UV-Vis; details: water
Text: Formation of AuNP assemblies. In this study, we investigated the possibility of forming convenient and reversible AuNPs assemblies using only elementary 15 nm AuNPs-citrate suspended in water and short peptides without the need for a complex surface modification. Peptides were used because they are relatively bulky and thus their steric prevented the particles from entering a permanent aggregated state. Arginine in particular can strongly interact with citrate anions via electrostatic interactions. A dipeptide containing two repetitions of arginine (Arg-Arg or RR) was thus used to interact with multiple particles at the same time and induce assembly.
Multispectral advanced nanoparticles tracking analysis (MANTA) was then used to confirm the size increase: The initial blue scattering corresponding to a hydrodynamic diameter of 40±25 nm (FIG. 1C) transformed immediately into red scattering corresponding to a hydrodynamic diameter of approximately 467±120 nm (FIG. 1D). Importantly, the count of particles decreased by more than 90%—from 2.5×10^5/mL to 2×10^4/mL, thus confirming that the vast majority of the AuNPs-citrate were aggregated. TEM images at different magnifications are seen in the supporting information (FIG. 10 and FIG. 11).
AuNPs Assembly and Dissociation Assembly. Typically, 1 mL of AuNPs-citrate at OD=1.5 was mixed with 50 μL of Arg-Arg (100 μM) to provoke the AuNPs assembly. The color of the suspensions rapidly changed from red to blue. The assembled AuNPs (Arg-Arg-AuNPs) were stable over time when stored at 4° C. and could be used for dissociation even month after their assembly.
The optical absorption measurements were collected using a hybrid multi-mode microplate reader (Synergy™ H1 model, BioTek Instruments, Inc.) in a 96-well plate. The dissociation of assembly was characterized by measuring the ratio of the absorbance at 520 nm or 530 nm and 700 nm or 820 nm for 20 nm NPs or 40 nm NPs, respectively.
The multispectral advanced nanoparticle tracking analysis (MANTA) is a technique that builds images from the particles' light scattering via three lasers of different wavelengths (for example, blue, green, and red); the wavelength of scattering depends on nanoparticle size. Thus, small particles (less than, or <, 100 nm) appear blue while larger particles appear greener or redder. MANTA uses these images to count the nanoparticles and calculate their size based on Brownian motion. MANTA was performed with the VIEWSIZER 3000™ (Horiba Scientific, USA). The temperature was set to 25° C. during the measurement. Automated noise analysis determines the optimal wavelength for representing each nanoparticle. Here, 8-bit composite videos were generated, and 10 videos were used per analysis (300 frames for seconds). A quartz cuvette with minimum volume of 1 mL was used for the measurement and the AuNPs concentrations was set up at 0.04 nM.

[2] = RRK-based aggregation of citrate-coated AuNPs; details: for particle aggregation of AuNPs: peptides from 0.5 to 30 μM
Text: To induce reversible aggregation of the AuNPs, we used positively charged Arg and Lys-based peptide residues (i.e., RRK). The RRK peptide could induce plasmonic coupling by electrostatic attractions between negatively charged citrate molecules and guanidine and amine groups in RRK (FIG. 36a).^8,19 The size of AuNPs increased upon addition of RRK peptides, as confirmed by transmission electron microscopy (TEM) and dynamic light scattering (DLS) (FIG. 36b and FIG. 42). […] Raman spectroscopy observed the appearance of C—C stretching at 984 cm^−1 and C—N stretching at 1443 cm^−1 from Arg residues in RRK (FIG. 36d).^20 Lastly, R, RRK, and RRKRRK (SEQ ID NO:13) peptides (from 0.5 to 30 μM) were used to induce AuNP aggregates to study the impact of charge number on particle aggregation. […] A higher positive charge number can decrease the critical coagulation concentration (CCC).^7 RRK peptide was chosen in this study because particle aggregation induced by a strong cationic peptide (i.e., RRKRRK) (SEQ ID NO:13) can result in irreversible aggregation.
(§1) Briefly, 10 μM of RRK peptide was used to aggregate 100 μL of AuNPs (conc approximately 3.6 nM). The particle aggregation rapidly occurred (less than 10 s), changing color from red to blue. Then the desired dissociation peptides were used to dissociate the AuNP aggregates. It is notable that these exemplary AuNPs are stabilized by citrate. Different surface ligands (for example, BSPP) and different sizes (40 or 60 nm) require different amounts of RRK peptide for particle aggregation.

[3] = target: SARS-CoV-2 main protease (Mpro) (Severe acute respiratory syndrome coronavirus 2, UniProt P0DTD1)
[4] = Colloidal stability of the dissociated AuNPs (aggregation parameter); format: physicochemical; details: for colloidal stability of peptide-capped AuNPs: NaCl 0.5 to 2 μM (so in the source), absorbance 520/600 nm
Procedure: We further studied the role of Glu, Lys, and Pro amino acids in A1 peptides (FIG. 37h). For example, Pro-based spacer can provide a rigid and self-assembling monolayer (SAM) that increases the colloidal stability of AuNPs.^28 When the spacer was moved to the site between Glu and Lys residues (i.e., A5), the dissociation capacity was 50% lower than A1 peptide. […] A1 peptide without Lys (i.e., A7) decreased to 30% of the dissociation capacity likely due to the decrease in grafting kinetics of thiol-Au bonds and hydration layers.^22,25 Lastly, the dissociated AuNPs were incubated in different concentrations ([…]) of NaCl to examine colloidal stability of the dissociated AuNPs (FIG. 37i).
Pro-, Ala-, and Gly-based spacers have different hydrophobic and hydrophilic natures, rigidity, and flexibility.^22,29 For example, Pro residue is more hydrophobic and rigid (i.e, low mobility) while Gly residue is more hydrophilic and flexible. To investigate the impact of the rigidity and hydrophilicity of the peptides on the particle dissociation, we synthesized A1, A10, and A11 peptides that have different spacers: PP, AA, GG (FIG. 38a-b and FIG. 49). We also synthesized the peptide without a spacer (i.e., A9) to confirm the impact of the spacer on particle dissociation. […] We further compared colloidal stability of the dissociated AuNPs by A1, A9, A10, and A11 peptides. The dissociated AuNPs were incubated in NaCl (from […]) for 1 h and measured variations of absorbance between 520 nm and 600 nm.
This exemplary dissociation strategy can also improve colloidal stability of plasmonic nanoparticles. […] Lastly, this exemplary dissociation strategy is less affected by matrix interference. We replaced the sample matrix with 100% human plasma, urine, saliva, and seawater after RRK-based AuNPs aggregation. After adding dissociation peptides, reversible aggregation still occurred, leading to a blue-shift of the plasmonic resonance peak; this in turn changes color from blue to red in 100% human plasma, urine, saliva, and seawater (FIG. 40j-k and FIG. 27).

[5] = Peptide-enabled dissociation of RRK-induced AuNP aggregates
Procedure: After inducing AuNP aggregates by the RRK peptides, the A1 peptides with different concentrations from 7 to 300 μM were used to dissociate AuNP aggregates. The plasmonic resonance peak of AuNP aggregates blue shifted to 520 nm after particle dissociation. (FIG. 37b). The hydrodynamic diameter of AuNP aggregates (greater than (>) 1 μm) was reduced to 27±0.07 nm, and the surface charge of AuNPs was—13.4±1.03 mV because of surface modification with neutral charged A1 peptides (150 μM) and residual citrates (FIG. 37c). Particle dissociation induced color change from blue to red and a decrease in size as confirmed by time-dependent photographs, multi-laser wavelength nanoparticle tracking analysis (M-NTA), and TEM (FIG. 37d-e and FIG. 45A-C).
To further study the role of each amino acid in the A1 peptide, we synthesized eight peptide sequences (from A2 to A8) for control experiments (FIG. 46A-H). Table 1 includes peptide sequence, net charge, critical dissociation concentrations (CDC), and design rationale. First, we replaced Cys residue with Gly (i.e., A2) to confirm the role of the anchoring group. […] Second, we hypothesized that negatively charged EE residues were required for particle dissociation because they provide electrostatic repulsions for citrate-coated AuNPs.
as §1
Briefly, RRK peptides (8-10 μM) was first used to trigger AuNP aggregation in distilled water. The sample was centrifuged at […] for 5 min to remove the supernatant. Then, the pellet was re-dispersed in 100% human saliva, plasma, urine, and seawater. After re-dispersion, the desired amounts of dissociation peptide were used to dissociate AuNPs aggregates in different matrixes. […] The experiment was performed with three replicates, and the microplate reader was used to measure spectral scanning from 300 to 900 nm before and after dissociation. The ratiometric signal (λ520/λ700) was referred as dissociation. The data was blanked to remove background signal.

[6] = Dissociation efficiency of HS-PEG6-OCH3 for alternative assembly conditions or coating ligands; details: high concentration (>100 μM) of HS-PEG6-OCH3
Procedure: First, peptide-free conditions were used to promote the assembly of AuNPs-citrate and its dissociation with HS-PEG6-OCH3 was evaluated (FIG. 3A). Here, salts were added to AuNPs-citrate to induce aggregation via disruption of the electrostatic repulsion forces between the particles. […] Unlike the peptide Arg-Arg, these ions cannot sterically prevent the AuNPs from falling in an irreversible aggregated state.
AuNPs with different coating ligands were also evaluated and compared to citrate: bis(p-sulfonatophenyl)phenylphosphine (BSPP), mercaptobenzoic acid (MBA), or thiolated PEG-COOH (HS-PEG-COOH; Mw=634 g·mol^−1). […] This is because MBA and HS-PEG-COOH make covalent Au—S bonds with the gold surface that prevent subsequent grafting of HS-PEG6-OCH3.
Finally, an alternative control peptide was used for assembly (Cys-Arg-Lys).

[7] = system: trypsin; test: Trypsin sensing with HS-PEG-peptide conjugates and Arg-Arg-AuNPs assemblies; format: biochemical
Procedure: Peptides containing the motif Arg-Arg-Lys (RRK) were thus conjugated to a thiolated PEG capped with a carboxyl group (HS-PEG12-COOH, Mw=634 Da) via EDC/NHS cross-linking reaction. Three peptides based on the motif RRK were investigated and the number of RRK repetitions varied from 1 to 3 to increase the mass and charge of the resulting HS-PEG-peptide conjugate (FIG. 6A).
From concentrations of 10 μM, HS-PEG12-COOH is capable to dissociate 100% of the assemblies (FIG. 21). However, the conjugation of the peptides to the HS-PEG12-COOH was expected to decrease its capacity to dissociate the assemblies as it increases its size and charge. In this context, the addition of the HS-PEG-peptide conjugates to AuNPs assemblies could not generate a colorimetric signal. However, in the presence of trypsin, the proteolytic cleavage could progressively remove the amino acids residues from the conjugate, thus reducing its size and charge that would restore the dissociation capacity. A colorimetric signal, proportional to the trypsin activity, could thus be observed (FIG. 6B).
Typically, 1 mL of HS-PEG12-COOH (HS—(CH2CH2O)12—CH2CH2COOH, 634 Da, 1 mM) dissolved in MES buffer (10 mM, pH=5.5) was activated via the addition of 100 μL of EDC (50 mM, MES) and 40 μL of NHS (500 mM, MES). The reaction was stirred at room temperature for one hour. After one hour, 1 mL of peptide (or NH2-molecule) (1 mM) dissolved in PBS (100 mM, pH=7.4) was added to the activated HS-PEG12-COOH. The reaction was stirred for 4 hours at room temperature and then stored at 4° C.
Typically, 5 μL of the PEG-peptide conjugate (0.44 mM) were added to 5 μL of PBS 1×. […] At the end of the incubation, 100 μL of aggregated AuNPs (Arg-Arg-AuNPs) were added, and a color change proportional to the trypsin concentration was observed. UV-Vis spectra were recorded 30 minutes later.

N=C(N)NCCC[C@H](N)C(=O)O [R, arginine, reference compound]
induction of assembly of AuNPs-citrate [1]: could not induce any form of assembly | particle aggregation of AuNPs [2]: did not aggregate

Ace-CGGKKEEAVLQSGFR-Am (Ac-CGGKKEEAVLQSGFR-NH2) [Peptide A18]
CDC [3]: at least 40 μM | LoD for Mpro [3]: 12.3 nM and 16.7 nM and 16.4 nM | specificity test [3]: only Mpro dissociated AuNP aggregates | colloidal stability in extreme conditions ([4]; DMEM, human plasma, saliva, human urine, NaCl 0.5 to 2M): maintained high colloidal stability

Ace-EEKKC-Am [Peptide A9]
colloidal stability of peptide-capped AuNPs [4]: relatively low colloidal stability

Ace-EEKKPPC-Am [Peptide A1]
time to dissociate AuNP aggregates ([5]; >150 μM peptide, ratiometric signal λ520/λ700): 20 min | hydrodynamic diameter after dissociation ([5]; A1 peptide 150 μM, aggregates >1 μm before): 27±0.07 nm | CDC ([5]; critical dissociation concentration, X (no dissociation)): 150 µM | CDC ([5]; spacer comparison PP, AA, GG): 40 µM | colloidal stability of peptide-capped AuNPs [4]: higher colloidal stability than citrate-coated AuNPs

Arg-Arg-Lys [RRK]
particle aggregation of AuNPs [2]: effectively induced particle aggregation | plasmonic resonance peak after addition of peptide ([2]; red-shifted from 520 nm): 648 nm

Cys-Arg-Lys [reference compound]
dissociation of the assembly by HS-PEG6-OCH3 [6]: irreversible

HS-PEG-RRKRRKRRK: HS-PEG12-COOH conjugated to peptide RRKRRKRRK via EDC/NHS (also: HS-PEG12 conjugated via EDC/NHS, site not given here)
dissociation capacity of the intact conjugate ([7]; titrated to Arg-Arg-AuNPs, up to >100 μM, no trypsin): total quenching of the dissociation capacity | dissociation capacity after digestion with trypsin ([7]; trypsin 10 μM, 37° C., 24 h): restored

RRKRRK
particle aggregation of AuNPs [2]: effectively induced particle aggregation
